Data: patent US20230218624A1 (Urovant Sciences GmbH, priority 2017, published 2023)
Like-named read-outs stand apart in the source and are kept apart here.

Key:
QTc interval = experiment: Thorough QT study, single oral doses; conditions: single dose 400 mg moxifloxacin
men and women with OAB = experiment: Phase 2b efficacy study in men and women with OAB; format: in vivo, human
Text: Part 2 was designed to continue to assess the safety and efficacy of concomitant dosing. […] Subjects in both Part 1 and Part 2 had the option of enrolling in a 1-year extension. Participants were required to keep a voiding diary, recording the occurrence of each strong urge, total incontinence, and urge incontinence episode. Efficacy data for Part 1 and Part 2 are summarized herein.
The total number of urgency incontinence episodes must have exceeded the total number of stress incontinence episodes for all subjects.
Conversely, a dose dependent effect on urge incontinence or total incontinence was not observed.

[1] = test system: patients with overactive bladder; experiment: Phase 2 safety data, adverse events (main study and 52-week extension); set-up: Drug-related AE, n subjects / Drug-related AE, % subjects / Discontinuation due to AE, n subjects / Discontinuation due to AE, % subjects / Discontinuation due to drug-related AE, n subjects / Dry eye, n subjects / Dry eye, % subjects / Constipation, n subjects / Constipation, % subjects / Diarrhea, n subjects / Diarrhea, % subjects / Dry mouth, n subjects / Dry mouth, % subjects / Alanine aminotransferase increased, n subjects / Alanine aminotransferase increased, % subjects / Aspartate aminotransferase increased, n subjects / Aspartate aminotransferase increased, % subjects / Arthralgia, n subjects / Arthralgia, % subjects / Dizziness, n subjects / Dizziness, % subjects / Dysuria, n subjects / Dysuria, % subjects: dose or concentration left out as unconfirmed
Text: A placebo group was included in the main study, and a group that received tolterodine monotherapy was included in the main study and in the extension.

patients with OAB = experiment: Phase 2b cardiovascular safety: orthostatic AEs, HR and BP changes; format: in vivo, human; conditions: tolterodine 4 mg
Text: None led to discontinuation. The overall incidence of orthostatic symptoms was low.
Small differences in the percent of subjects exceeding categorical heart rate and blood pressure thresholds for vibegron were similar to those in the tolterodine arm.

[2] = human, in vivo, po
[3] = Mass balance study with [14C]vibegron in healthy subjects; conditions: human plasma, 2 and 4 hr
[4] = tolterodine ER 4 mg, OAB wet subjects
[5] = 3 consecutive post-baseline visits

**Q.** Which “effect on QTcF” value (QTc interval) does the source give for COc1c(N2C[C@@H]3CCCN[C@@H]3C2)c(F)cc2c(=O)c(C(=O)O)cn(C3CC3)c12 [moxifloxacin, reference compound] here?
**A.** statistically significant effect

**Q.** With Cc1ccc(O)c([C@H](CCN(C(C)C)C(C)C)c2ccccc2)c1 [Tolterodine ER, tolterodine] as the compound, how does the “Micturitions, change from baseline Week 8, mean” value (men and women with OAB; tolterodine ER 4 mg) read?
**A.** −1.73

**Q.** And the “Micturitions, daily number, Week 8 mean” value (men and women with OAB; tolterodine ER 4 mg)?
**A.** 9.24

**Q.** What about the “Micturitions, difference from placebo Week 8, difference in LS means” value (men and women with OAB; tolterodine ER 4 mg) of the same compound?
**A.** −0.54

**Q.** And the “Urgency episodes, change from baseline Week 8, mean” value (men and women with OAB; tolterodine ER 4 mg)?
**A.** −2.52

**Q.** What about the “Urgency episodes, daily number, Week 8 mean” value (men and women with OAB; tolterodine ER 4 mg) of the same compound?
**A.** 3.91

**Q.** And the “Urgency episodes, difference from placebo Week 8, difference in LS means” value (men and women with OAB; tolterodine ER 4 mg)?
**A.** −0.94

**Q.** What about the “Change from baseline in volume voided per micturition, difference from placebo in LS means” value (men and women with OAB; tolterodine ER 4 mg once daily, Week 8) of the same compound?
**A.** 30.77 mL

**Q.** And the “Total incontinence episodes, change from baseline Week 8, mean” value (men and women with OAB; [4])?
**A.** −1.80

**Q.** And the “Total incontinence episodes, daily number, Week 8 mean” value (men and women with OAB; [4])?
**A.** 1.32

**Q.** What about the “Total incontinence episodes, difference from placebo Week 8, difference in LS means” value (men and women with OAB; [4]) of the same compound?
**A.** −0.34

**Q.** What about the “Urgency incontinence episodes, change from baseline Week 8, mean” value (men and women with OAB; [4]) of the same compound?
**A.** −1.67

**Q.** What about the “Urgency incontinence episodes, daily number, Week 8 mean” value (men and women with OAB; [4]) of the same compound?
**A.** 1.15

**Q.** And the “Urgency incontinence episodes, difference from placebo Week 8, difference in LS means” value (men and women with OAB; [4])?
**A.** −0.46

**Q.** What about the “Accidental overdose, % subjects” value ([1]; 4 mg, first 12 weeks) of the same compound?
**A.** (2.3) %

**Q.** What about the “Accidental overdose, n subjects” value ([1]; 4 mg, first 12 weeks) of the same compound?
**A.** 6

**Q.** What about the “Fatigue, % subjects” value ([1]; 4 mg, first 12 weeks) of the same compound?
**A.** (2.3) %

**Q.** And the “Fatigue, n subjects” value ([1]; 4 mg, first 12 weeks)?
**A.** 6

**Q.** And the “Headache, % subjects” value ([1]; 4 mg, first 12 weeks)?
**A.** (3.5) %

**Q.** And the “Headache, n subjects” value ([1]; 4 mg, first 12 weeks)?
**A.** 9

**Q.** And the “Nasopharyngitis, % subjects” value ([1]; 4 mg, first 12 weeks)?
**A.** (1.6) %

**Q.** And the “Nasopharyngitis, n subjects” value ([1]; 4 mg, first 12 weeks)?
**A.** 4

**Q.** What about the “Nausea, % subjects” value ([1]; 4 mg, first 12 weeks) of the same compound?
**A.** (2.3) %

**Q.** And the “Nausea, n subjects” value ([1]; 4 mg, first 12 weeks)?
**A.** 6

**Q.** And the “Osteoarthritis, % subjects” value ([1]; 4 mg, first 12 weeks)?
**A.** (0.0) %

**Q.** What about the “Osteoarthritis, n subjects” value ([1]; 4 mg, first 12 weeks) of the same compound?
**A.** 0

**Q.** And the “Pain in extremity, % subjects” value ([1]; 4 mg, first 12 weeks)?
**A.** (0.4) %

**Q.** What about the “Pain in extremity, n subjects” value ([1]; 4 mg, first 12 weeks) of the same compound?
**A.** 1

**Q.** What about the “Serious AE, % subjects” value ([1]; 4 mg, first 12 weeks) of the same compound?
**A.** (1.2) %

**Q.** And the “Serious AE, n subjects” value ([1]; 4 mg, first 12 weeks)?
**A.** 3

**Q.** What about the “Sinusitis, % subjects” value ([1]; 4 mg, first 12 weeks) of the same compound?
**A.** (0.4) %

**Q.** What about the “Sinusitis, n subjects” value ([1]; 4 mg, first 12 weeks) of the same compound?
**A.** 1

**Q.** And the “Urinary tract infection, % subjects” value ([1]; 4 mg, first 12 weeks)?
**A.** (4.7) %

**Q.** What about the “Urinary tract infection, n subjects” value ([1]; 4 mg, first 12 weeks) of the same compound?
**A.** 12

**Q.** And the “≥1 AE, % subjects” value ([1]; 4 mg, first 12 weeks)?
**A.** (45.1) %

**Q.** What about the “≥1 AE, n subjects” value ([1]; 4 mg, first 12 weeks) of the same compound?
**A.** 116

**Q.** What about the frequency of injuries ([1]; Phase 2 study arms) of the same compound?
**A.** 2.1%

**Q.** What about the “Alanine aminotransferase increased, % subjects” value ([1]; first 12 weeks) of the same compound?
**A.** (0.4) %

**Q.** And the “Alanine aminotransferase increased, n subjects” value ([1]; first 12 weeks)?
**A.** 1

**Q.** What about the “Arthralgia, % subjects” value ([1]; first 12 weeks) of the same compound?
**A.** (1.2) %

**Q.** And the “Arthralgia, n subjects” value ([1]; first 12 weeks)?
**A.** 3

**Q.** And the “Aspartate aminotransferase increased, % subjects” value ([1]; first 12 weeks)?
**A.** (0.0) %

**Q.** And the “Aspartate aminotransferase increased, n subjects” value ([1]; first 12 weeks)?
**A.** 0

**Q.** And the “Constipation, % subjects” value ([1]; first 12 weeks)?
**A.** (1.9) %

**Q.** What about the “Constipation, n subjects” value ([1]; first 12 weeks) of the same compound?
**A.** 5

**Q.** And the “Diarrhea, % subjects” value ([1]; first 12 weeks)?
**A.** (3.5) %

**Q.** What about the “Diarrhea, n subjects” value ([1]; first 12 weeks) of the same compound?
**A.** 9

**Q.** And the “Discontinuation due to AE, % subjects” value ([1]; first 12 weeks)?
**A.** (1.6) %

**Q.** What about the “Discontinuation due to AE, n subjects” value ([1]; first 12 weeks) of the same compound?
**A.** 4

**Q.** What about the “Discontinuation due to drug-related AE, n subjects” value ([1]; first 12 weeks) of the same compound?
**A.** 0

**Q.** And the “Dizziness, % subjects” value ([1]; first 12 weeks)?
**A.** (1.9) %

**Q.** And the “Dizziness, n subjects” value ([1]; first 12 weeks)?
**A.** 5

**Q.** What about the “Drug-related AE, % subjects” value ([1]; first 12 weeks) of the same compound?
**A.** (16.3) %

**Q.** And the “Drug-related AE, n subjects” value ([1]; first 12 weeks)?
**A.** 42

**Q.** What about the “Dry eye, % subjects” value ([1]; first 12 weeks) of the same compound?
**A.** (3.9) %

**Q.** What about the “Dry eye, n subjects” value ([1]; first 12 weeks) of the same compound?
**A.** 10

**Q.** And the “Dry mouth, % subjects” value ([1]; first 12 weeks)?
**A.** (8.6) %

**Q.** And the “Dry mouth, n subjects” value ([1]; first 12 weeks)?
**A.** 22

**Q.** What about the “Dysuria, % subjects” value ([1]; first 12 weeks) of the same compound?
**A.** (1.2) %

**Q.** And the “Dysuria, n subjects” value ([1]; first 12 weeks)?
**A.** 3

**Q.** And the SAEs reported ([1]; tolterodine 4 mg, main study)?
**A.** 3

**Q.** What about the “DBP change from baseline, mean (week 1)” value (patients with OAB) of the same compound?
**A.** −0.12 mm Hg

**Q.** And the “DBP change from baseline, mean maximum (week 1 to 8)” value (patients with OAB)?
**A.** 5.19 mm Hg

**Q.** What about the “HR change from baseline, mean (week 1)” value (patients with OAB) of the same compound?
**A.** 0.68 bpm

**Q.** And the “HR change from baseline, mean maximum (week 1 to 8)” value (patients with OAB)?
**A.** 5.66 bpm

**Q.** And the “SBP change from baseline, mean (week 1)” value (patients with OAB)?
**A.** 0.04 mm Hg

**Q.** What about the “SBP change from baseline, mean maximum (week 1 to 8)” value (patients with OAB) of the same compound?
**A.** 7.29 mm Hg

**Q.** And the “DBP change from baseline ≥5 mm Hg, subjects” value (patients with OAB; [5])?
**A.** (12.4) %

**Q.** What about the “DBP change from baseline ≥10 bpm, subjects” value (patients with OAB; [5]) of the same compound?
**A.** (5.4) %

**Q.** And the “DBP change from baseline ≥15 bpm, subjects” value (patients with OAB; [5])?
**A.** (1.2) %

**Q.** And the “HR change from baseline ≥5 mm Hg, subjects” value (patients with OAB; [5])?
**A.** (12.0) %

**Q.** What about the “HR change from baseline ≥10 bpm, subjects” value (patients with OAB; [5]) of the same compound?
**A.** (4.5) %

**Q.** And the “HR change from baseline ≥15 bpm, subjects” value (patients with OAB; [5])?
**A.** (1.7) %

**Q.** What about the “SBP change from baseline ≥5 mm Hg, subjects” value (patients with OAB; [5]) of the same compound?
**A.** (16.9) %

**Q.** And the “SBP change from baseline ≥10 bpm, subjects” value (patients with OAB; [5])?
**A.** (7.9) %

**Q.** What about the “SBP change from baseline ≥15 bpm, subjects” value (patients with OAB; [5]) of the same compound?
**A.** (2.9) %

**Q.** Which AUC of conmed, geometric mean ([2]; 0.15 mg) does the source give for C#C[C@]1(O)CC[C@H]2[C@@H]3CCC4=CC(=O)CC[C@@H]4[C@H]3CC[C@@]21CC [LNG, levonorgestrel] here?
**A.** 31 ng·h/mL

**Q.** With C#C[C@]1(O)CC[C@H]2[C@@H]3CCc4cc(O)ccc4[C@H]3CC[C@@]21C [EE, ethinyl estradiol] as the compound, how does the AUC of conmed, geometric mean ([2]; 0.03 mg) read?
**A.** 0.81 ng·h/mL

**Q.** For O=C(O)C1OC(OC(c2ccccc2)C2CCC(Cc3ccc(NC(=O)C4CCc5nccc(=O)n54)cc3)N2)C(O)C(O)C1O (stereo not shown) [M7], which “share of total circulating drug-related material” value [3] is on record?
**A.** 12-14%
